In PubChem BioAssay (NCI):
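Here, GI50 denotes the concentration required for 50% inhibition of growth. TGI denotes the concentration required for complete inhibition of growth.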

Key:
Test in all cases: NCI tumour cell line growth inhibition, 384-well format
786-0 renal = system: 786-0 renal
A498 renal = system: A498 renal
A549 NSCLC = system: A549 NSCLC
ACHN renal = system: ACHN renal
BT-549 breast = system: BT-549 breast
CAKI-1 renal = system: CAKI-1 renal
CCRF-CEM leukemia = system: CCRF-CEM leukemia
DU-145 prostate = system: DU-145 prostate
EKVX NSCLC = system: EKVX NSCLC
HCT-116 colon = system: HCT-116 colon
HCT-15 colon = system: HCT-15 colon
HL-60(TB) leukemia = system: HL-60(TB) leukemia
HOP-62 NSCLC = system: HOP-62 NSCLC
HOP-92 NSCLC = system: HOP-92 NSCLC
HS 578T breast = system: HS 578T breast
HT29 colon = system: HT29 colon
IGROV1 ovarian = system: IGROV1 ovarian
K-562 leukemia = system: K-562 leukemia
KM12 colon = system: KM12 colon
LOX IMVI melanoma = system: LOX IMVI melanoma
M14 melanoma = system: M14 melanoma
MALME-3M melanoma = system: MALME-3M melanoma
MCF7 breast = system: MCF7 breast
MDA-MB-231 breast = system: MDA-MB-231 breast
MDA-MB-435 melanoma = system: MDA-MB-435 melanoma
MDA-MB-468 breast = system: MDA-MB-468 breast
MOLT-4 leukemia = system: MOLT-4 leukemia
NCI-H226 lung = system: NCI-H226 lung
NCI-H23 lung = system: NCI-H23 lung
NCI-H322M lung = system: NCI-H322M lung
NCI-H522 lung = system: NCI-H522 lung
NCI/ADR-RES ovarian = system: NCI/ADR-RES ovarian
OVCAR-3 ovarian = system: OVCAR-3 ovarian
OVCAR-4 ovarian = system: OVCAR-4 ovarian
OVCAR-5 ovarian = system: OVCAR-5 ovarian
OVCAR-8 ovarian = system: OVCAR-8 ovarian
PC-3 prostate = system: PC-3 prostate
RPMI-8226 leukemia = system: RPMI-8226 leukemia
RXF 393 renal = system: RXF 393 renal
SF-268 CNS = system: SF-268 CNS
SF-295 CNS = system: SF-295 CNS
SF-539 CNS = system: SF-539 CNS
SK-MEL-2 melanoma = system: SK-MEL-2 melanoma
SK-MEL-28 melanoma = system: SK-MEL-28 melanoma
SK-OV-3 ovarian = system: SK-OV-3 ovarian
SN12C renal = system: SN12C renal
SNB-19 CNS = system: SNB-19 CNS
SNB-75 CNS = system: SNB-75 CNS
SW-620 colon = system: SW-620 colon
T-47D breast = system: T-47D breast
TK-10 renal = system: TK-10 renal
U251 glioblastoma = system: U251 glioblastoma
UACC-257 melanoma = system: UACC-257 melanoma
UACC-62 melanoma = system: UACC-62 melanoma
UO-31 renal = system: UO-31 renal

O=C1c2c(O)ccc(O)c2C(=O)c2c(NCCNCCO)ccc(NCCNCCO)c21
GI50 ([…]-0 renal): 10.3 nM | TGI (786-0 renal): 246 nM | GI50 (A498 renal): 11.4 nM | TGI (A498 renal): 217 nM | GI50 (A549 NSCLC): < 10 nM | TGI (A549 NSCLC): 181 nM | GI50 (ACHN renal): 33.3 nM | TGI (ACHN renal): 251 nM | GI50 (BT-549 breast): 15.5 nM | TGI (BT-549 breast): 195 nM | GI50 (CAKI-1 renal): 13.3 nM | TGI (CAKI-1 renal): 642 nM | GI50 (CCRF-CEM leukemia): < 10 nM | TGI (CCRF-CEM leukemia): < 10 nM | GI50 (DU-145 prostate): 19.6 nM | TGI (DU-145 prostate): 650 nM | GI50 (EKVX NSCLC): 589 nM | TGI (EKVX NSCLC): 3540 nM | GI50 (HCT-116 colon): < 10 nM | TGI (HCT-116 colon): 242 nM | GI50 (HCT-15 colon): < 10 nM | TGI (HCT-15 colon): 173 nM | GI50 (HL-60(TB) leukemia): < 10 nM | TGI (HL-60(TB) leukemia): < 10 nM | GI50 (HOP-62 NSCLC): < 10 nM | TGI (HOP-62 NSCLC): 16 nM | GI50 (HOP-92 NSCLC): 24.8 nM | TGI (HOP-92 NSCLC): 1190 nM | GI50 (HS 578T breast): < 10 nM | TGI (HS 578T breast): 181 nM | GI50 (HT29 colon): 34.4 nM | TGI (HT29 colon): 187 nM | GI50 (IGROV1 ovarian): 185 nM | TGI (IGROV1 ovarian): 5370 nM | GI50 (K-562 leukemia): 48.1 nM | TGI (K-562 leukemia): 240 nM | GI50 (KM12 colon): 44.7 nM | TGI (KM12 colon): 284 nM | GI50 (LOX IMVI melanoma): 13.8 nM | TGI (LOX IMVI melanoma): 155 nM | GI50 (M14 melanoma): 17.7 nM | TGI (M14 melanoma): 334 nM | GI50 (MALME-3M melanoma): 61.1 nM | TGI (MALME-3M melanoma): 388 nM | GI50 (MCF7 breast): < 10 nM | TGI (MCF7 breast): 1180 nM | GI50 (MDA-MB-231 breast): 18.7 nM | TGI (MDA-MB-231 breast): 97.9 nM | GI50 (MDA-MB-435 melanoma): 125 nM | TGI (MDA-MB-435 melanoma): 1100 nM | GI50 (MDA-MB-468 breast): 16.8 nM | TGI (MDA-MB-468 breast): 59.8 nM | GI50 (MOLT-4 leukemia): < 10 nM | TGI (MOLT-4 leukemia): < 10 nM | GI50 (NCI-H226 lung): 13.4 nM | TGI (NCI-H226 lung): 163 nM | GI50 (NCI-H23 lung): 12.9 nM | TGI (NCI-H23 lung): 102 nM | GI50 (NCI-H322M lung): 313 nM | TGI (NCI-H322M lung): 1760 nM | GI50 (NCI-H522 lung): 14.6 nM | TGI (NCI-H522 lung): 58 nM | GI50 (NCI/ADR-RES ovarian): 4580 nM | TGI (NCI/ADR-RES ovarian): > 100000 nM | GI50 (OVCAR-3 ovarian): 186 nM | TGI (OVCAR-3 ovarian): 1160 nM | GI50 (OVCAR-4 ovarian): 171 nM | TGI (OVCAR-4 ovarian): 660 nM | GI50 (OVCAR-5 ovarian): 24.3 nM | TGI (OVCAR-5 ovarian): 284 nM | GI50 (OVCAR-8 ovarian): < 10 nM | TGI (OVCAR-8 ovarian): 152 nM | GI50 (PC-3 prostate): 135 nM | TGI (PC-3 prostate): 545 nM | GI50 (RPMI-8226 leukemia): < 10 nM | TGI (RPMI-8226 leukemia): 37.1 nM | GI50 (RXF 393 renal): 61 nM | TGI (RXF 393 renal): 210 nM | GI50 (SF-268 CNS): < 10 nM | TGI (SF-268 CNS): 154 nM | GI50 (SF-295 CNS): 10.6 nM | TGI (SF-295 CNS): 44.7 nM | GI50 (SF-539 CNS): < 10 nM | TGI (SF-539 CNS): 124 nM | GI50 (SK-MEL-2 melanoma): 83.9 nM | TGI (SK-MEL-2 melanoma): 189 nM | GI50 (SK-MEL-28 melanoma): 116 nM | TGI (SK-MEL-28 melanoma): 1370 nM | GI50 (SK-OV-3 ovarian): 17.7 nM | TGI (SK-OV-3 ovarian): 661 nM | GI50 (SN12C renal): < 10 nM | TGI (SN12C renal): 55.5 nM | GI50 (SNB-19 CNS): 10.5 nM | TGI (SNB-19 CNS): 1120 nM | GI50 (SNB-75 CNS): 22.9 nM | TGI (SNB-75 CNS): 130 nM | GI50 (SW-620 colon): < 10 nM | TGI (SW-620 colon): 507 nM | GI50 (T-47D breast): 29.8 nM | TGI (T-47D breast): 1420 nM | GI50 (TK-10 renal): 121 nM | TGI (TK-10 renal): 358 nM | GI50 (U251 glioblastoma): < 10 nM | TGI (U251 glioblastoma): 114 nM | GI50 (UACC-257 melanoma): 1100 nM | TGI (UACC-257 melanoma): 2370 nM | GI50 (UACC-62 melanoma): < 10 nM | TGI (UACC-62 melanoma): 148 nM | GI50 (UO-31 renal): 195 nM | TGI (UO-31 renal): 1650 nM
